Results as given in patent publication US5591714A, “Derivatives of A82846” (priority 1994, dated 1997).

Experiments:
Assay in all cases: In vivo activity, experimentally infected mice (ED50)
[1] = tested on: Streptococcus pneumoniae; conditions: Streptococcus pneumoniae infection; doses administered subcutaneously to mice 1 and 4 hours postinfection
[2] = tested on: Staphylococcus aureus; conditions: Staphylococcus aureus infection; doses administered subcutaneously to mice 1 and 4 hours postinfection
[3] = tested on: Streptococcus pyogenes; conditions: Streptococcus pyogenes infection; doses administered subcutaneously to mice 1 and 4 hours postinfection

Structure (SMILES) | ED50 [1] | ED50 [2] | ED50 [3]
CCCCCCCCN(C)[C@H](CC(C)C)C(=O)N[C@H]1C(=O)N[C@@H](CC(N)=O)C(=O)N[C@H]2C(=O)N[C@H]3C(=O)N[C@H](C(=O)N[C@H](C(=O)O)c4cc(O)cc(O)c4-c4cc3ccc4O)[C@H](O[C@H]3C[C@](C)(N)[C@@H](O)[C@H](C)O3)c3ccc(cc3)Oc3cc2cc(c3O[C@@H]2O[C@H](CO)[C@@H](O)[C@H](O)[C@H]2O[C@H]2C[C@](C)(N)[C@@H](O)[C@H](C)O2)Oc2ccc(cc2Cl)[C@H]1O [Compound 2] | 1.25 mg/kg/2 | > 5.0 mg/kg/2 | 0.79 mg/kg/2
CCCCCN[C@@]1(C)C[C@H](O[C@H]2[C@H](Oc3c4cc5cc3Oc3ccc(cc3Cl)[C@@H](O)[C@@H](NC(=O)[C@@H](CC(C)C)NC)C(=O)N[C@@H](CC(N)=O)C(=O)N[C@H]5C(=O)N[C@H]3C(=O)N[C@H](C(=O)N[C@H](C(=O)O)c5cc(O)cc(O)c5-c5cc3ccc5O)[C@H](O[C@H]3C[C@](C)(N)[C@@H](O)[C@H](C)O3)c3ccc(cc3)O4)O[C@H](CO)[C@@H](O)[C@@H]2O)O[C@@H](C)[C@@H]1O [Compound 5] | 0.1 mg/kg/2 | 0.92 mg/kg/2 | 0.17 mg/kg/2
CCCCCN[C@@]1(C)C[C@H](O[C@H]2[C@H](Oc3c4cc5cc3Oc3ccc(cc3Cl)[C@@H](O)[C@@H](NC(=O)[C@@H](CC(C)C)N(C)CCCCC)C(=O)N[C@@H](CC(N)=O)C(=O)N[C@H]5C(=O)N[C@H]3C(=O)N[C@H](C(=O)N[C@H](C(=O)O)c5cc(O)cc(O)c5-c5cc3ccc5O)[C@H](O[C@H]3C[C@](C)(NCCCCC)[C@@H](O)[C@H](C)O3)c3ccc(cc3)O4)O[C@H](CO)[C@@H](O)[C@@H]2O)O[C@@H](C)[C@@H]1O [Compound 8] | > 4.0 mg/kg/2 | > 4.0 mg/kg/2 | 2.69 mg/kg/2
CCCCCCCCCCN[C@@]1(C)C[C@H](O[C@H]2[C@H](Oc3c4cc5cc3Oc3ccc(cc3Cl)[C@@H](O)[C@@H](NC(=O)[C@@H](CC(C)C)NC)C(=O)N[C@@H](CC(N)=O)C(=O)N[C@H]5C(=O)N[C@H]3C(=O)N[C@H](C(=O)N[C@H](C(=O)O)c5cc(O)cc(O)c5-c5cc3ccc5O)[C@H](O[C@H]3C[C@](C)(N)[C@@H](O)[C@H](C)O3)c3ccc(cc3)O4)O[C@H](CO)[C@@H](O)[C@@H]2O)O[C@@H](C)[C@@H]1O [Compound 9] | – | – | 0.68 mg/kg/2
CN[C@H](CC(C)C)C(=O)N[C@H]1C(=O)N[C@@H](CC(N)=O)C(=O)N[C@H]2C(=O)N[C@H]3C(=O)N[C@H](C(=O)N[C@H](C(=O)O)c4cc(O)cc(O)c4-c4cc3ccc4O)[C@H](O[C@H]3C[C@](C)(N)[C@@H](O)[C@H](C)O3)c3ccc(cc3)Oc3cc2cc(c3O[C@@H]2O[C@H](CO)[C@@H](O)[C@H](O)[C@H]2O[C@H]2C[C@](C)(NCc3ccc(Cl)cc3)[C@@H](O)[C@H](C)O2)Oc2ccc(cc2Cl)[C@H]1O [Compound 20] | 0.23 mg/kg/2 | > 2.0 mg/kg/2 | 0.15 mg/kg/2
CN[C@H](CC(C)C)C(=O)N[C@H]1C(=O)N[C@@H](CC(N)=O)C(=O)N[C@H]2C(=O)N[C@H]3C(=O)N[C@H](C(=O)N[C@H](C(=O)O)c4cc(O)cc(O)c4-c4cc3ccc4O)[C@H](O[C@H]3C[C@](C)(NCCc4ccccc4)[C@@H](O)[C@H](C)O3)c3ccc(cc3)Oc3cc2cc(c3O[C@@H]2O[C@H](CO)[C@@H](O)[C@H](O)[C@H]2O[C@H]2C[C@](C)(N)[C@@H](O)[C@H](C)O2)Oc2ccc(cc2Cl)[C@H]1O [Compound 25] | 0.76 mg/kg/2 | > 1.0 mg/kg/2 | 0.50 mg/kg/2
CN[C@H](CC(C)C)C(=O)N[C@H]1C(=O)N[C@@H](CC(N)=O)C(=O)N[C@H]2C(=O)N[C@H]3C(=O)N[C@H](C(=O)N[C@H](C(=O)O)c4cc(O)cc(O)c4-c4cc3ccc4O)[C@H](O[C@H]3C[C@](C)(N)[C@@H](O)[C@H](C)O3)c3ccc(cc3)Oc3cc2cc(c3O[C@@H]2O[C@H](CO)[C@@H](O)[C@H](O)[C@H]2O[C@H]2C[C@](C)(NCC(c3ccccc3)c3ccccc3)[C@@H](O)[C@H](C)O2)Oc2ccc(cc2Cl)[C@H]1O [Compound 26] | 0.47 mg/kg/2 | > 3.0 mg/kg/2 | 0.48 mg/kg/2
CCCCCN[C@@]1(C)C[C@H](O[C@H]2[C@H](Oc3c4cc5cc3Oc3ccc(cc3Cl)[C@@H](O[C@H]3C[C@](C)(N)[C@@H](O)[C@H](C)O3)[C@@H]3NC(=O)[C@H](NC(=O)[C@@H]5NC(=O)[C@H](CC(N)=O)NC(=O)[C@H](NC(=O)[C@@H](CC(C)C)N(C)CCCCC)[C@H](O)c5ccc(c(Cl)c5)O4)c4ccc(O)c(c4)-c4c(O)cc(O)cc4[C@@H](C(=O)O)NC3=O)O[C@H](CO)[C@@H](O)[C@@H]2O)O[C@@H](C)[C@@H]1O [Compound 36] | 0.29 mg/kg/2 | 1.0 mg/kg/2 | 0.38 mg/kg/2
CCCCCN[C@@]1(C)C[C@H](O[C@H]2[C@H](Oc3c4cc5cc3Oc3ccc(cc3Cl)[C@@H](O[C@H]3C[C@](C)(NCCCCC)[C@@H](O)[C@H](C)O3)[C@@H]3NC(=O)[C@H](NC(=O)[C@@H]5NC(=O)[C@H](CC(N)=O)NC(=O)[C@H](NC(=O)[C@@H](CC(C)C)N(C)CCCCC)[C@H](O)c5ccc(c(Cl)c5)O4)c4ccc(O)c(c4)-c4c(O)cc(O)cc4[C@@H](C(=O)O)NC3=O)O[C@H](CO)[C@@H](O)[C@@H]2O)O[C@@H](C)[C@@H]1O [Compound 37] | 0.88 mg/kg/2 | > 5.0 mg/kg/2 | 1.09 mg/kg/2
CCCCCCCCN(C)[C@H](CC(C)C)C(=O)N[C@H]1C(=O)N[C@@H](CC(N)=O)C(=O)N[C@H]2C(=O)N[C@H]3C(=O)N[C@H](C(=O)N[C@H](C(=O)O)c4cc(O)cc(O)c4-c4cc3ccc4O)[C@H](O[C@H]3C[C@](C)(N)[C@@H](O)[C@H](C)O3)c3ccc(c(Cl)c3)Oc3cc2cc(c3O[C@@H]2O[C@H](CO)[C@@H](O)[C@H](O)[C@H]2O[C@H]2C[C@](C)(N)[C@@H](O)[C@H](C)O2)Oc2ccc(cc2Cl)[C@H]1O [Compound 39] | 0.34 mg/kg/2 | 1.22 mg/kg/2 | 0.18 mg/kg/2
CCCCCCCCN[C@@]1(C)C[C@H](O[C@H]2[C@H](Oc3c4cc5cc3Oc3ccc(cc3Cl)[C@@H](O[C@H]3C[C@](C)(NCCCCCCCC)[C@@H](O)[C@H](C)O3)[C@@H]3NC(=O)[C@H](NC(=O)[C@@H]5NC(=O)[C@H](CC(N)=O)NC(=O)[C@H](NC(=O)[C@@H](CC(C)C)NC)[C@H](O)c5ccc(c(Cl)c5)O4)c4ccc(O)c(c4)-c4c(O)cc(O)cc4[C@@H](C(=O)O)NC3=O)O[C@H](CO)[C@@H](O)[C@@H]2O)O[C@@H](C)[C@@H]1O [Compound 41] | 0.32 mg/kg/2 | 1.22 mg/kg/2 | 0.18 mg/kg/2
CC(C)CC(C(=O)NC1C(=O)NC(CC(N)=O)C(=O)NC2C(=O)NC3C(=O)NC(C(=O)NC(C(=O)O)c4cc(O)cc(O)c4-c4cc3ccc4O)C(OC3CC(C)(N)C(O)C(C)O3)c3ccc(c(Cl)c3)Oc3cc2cc(c3OC2OC(CO)C(O)C(O)C2OC2CC(C)(N)C(O)C(C)O2)Oc2ccc(cc2Cl)C1O)N(C)Cc1ccccc1 (stereo not shown) [Compound 52] | 0.75 mg/kg/2 | – | 0.5 mg/kg/2
CCN(CC)c1ccc(CNC2(C)CC(OC3c4ccc(c(Cl)c4)Oc4cc5cc(c4OC4OC(CO)C(O)C(O)C4OC4CC(C)(NCc6ccc(N(CC)CC)cc6)C(O)C(C)O4)Oc4ccc(cc4Cl)C(O)C(NC(=O)C(CC(C)C)NC)C(=O)NC(CC(N)=O)C(=O)NC5C(=O)NC4C(=O)NC3C(=O)NC(C(=O)O)c3cc(O)cc(O)c3-c3cc4ccc3O)OC(C)C2O)cc1 (stereo not shown) [Compound 57] | – | – | < 0.62 mg/kg/2
